Entries after “also recorded” stand apart in the source; their conditions may differ. Where two headings read alike, the source gives them in different places.
Key:
[1] = IV/p.o. pharmacokinetic study in monkey; format: in vivo, male cynomolgus monkeys
Protocol: (§1) Intravenous and oral (IV/p.o.) pharmacokinetic (PK) studies in rat, dog and monkey were carried out to facilitate the projection of human PK for Compound 1.
(§2) In the rat studies, Compound 1 was dosed both as a suspension (in 0.5% HPMC) and as a solution in 20% HPPCD. Experiments in the dog and monkey were dosed as a suspension in 0.5% HPMC.

[2] = Caco-2 cell monolayer permeability; format: in vitro ADME; settings: human, tested at 10 μM, read-out: apical-to-basolateral apparent permeability Papp
Protocol: In Caco-2 cell monolayers, Compound 1 had low apical-to-basolateral apparent permeability Papp value of <0.2×10^−6 cm/s when tested at 10 μM.

[3] = IV/p.o. pharmacokinetic study in rat; format: in vivo, male Sprague Dawley rats
Protocol: Separate cohorts (n=3) of non-fasted male Sprague Dawley rats were administered Compound 1 at a dose of 1 mg/kg intravenously (IV) via tail vein, 5 mg/kg orally as a solution, or 5 mg/kg orally as a suspension. Blood samples were collected at 0.033 (IV only), 0.083 (IV only), 0.25, 0.5, 1, 2, 4, 8, and 24 hrs post dose after administration. Blood was harvested via the jugular vein catheter. Blood samples were collected into tubes containing K2EDTA and placed on wet ice. The plasma fraction was separated by centrifugation and frozen at −20 to −80 ° C. Concentrations of Compound 1 in plasma were determined using a qualified liquid chromatography-triple quadrupole mass spectrometry. FIG. 2 depicts the plasma concentration of Compound 1 in healthy male SD rats over 24 hours.
as §1, §2

DSS-induced colitis = assay: Dextran sulfate sodium (DSS)-induced colitis model; format: in vivo, mice
Protocol: Colitis was induced in 121 mice by exposure to 3% DSS-treated drinking water from Day 0 to Day 5. Animals were dosed via oral gavage (p.o.) with Compound 1, 6-thioguanine, or vehicle control once a day (q.d.) from Day 6 to 19. Video endoscopy was performed on days 10, 14, and 19. At these time points, colitis severity was assessed in all animals using video endoscopy, where images were taken and colitis severity scored by a blinded observer. During each endoscopy procedure, stool consistency was recorded using a 0-4 scale and an image from each animal was captured at the most severe region of disease that was identified. Following endoscopy on Day 19, all animals for the efficacy component were euthanized with CO2 inhalation. Blood was collected via cardiac puncture and placed in K2EDTA tubes for preparation of plasma. A small whole blood sample was retained for the assessment of hemoglobin and hematocrit while the remaining sample was processed to plasma, then split into two samples and snap frozen. A complete blood count, including hematocrit and hemoglobin levels, was assessed using an automated PCE-90 Vet hematology unit (HTI). FIG. 3 depicts the serum hemoglobin concentration after 14 days of oral dosing Compound 1 in mice with dextran sulfate sodium (DSS)-induced colitis. FIG. 4 depicts Endoscopy Colitis Scores in mice with dextran sulfate sodium (DSS)-induced colitis dosed via oral gavage with Compound 1, 6-thioguanine, or vehicle control once a day after 19 days.

systemic EPO = assay: Systemic EPO response after oral and intraperitoneal dosing (MSD assay); format: in vivo, male Balb/c mice; settings: 6 h post dosing
Protocol: (§3) The effect of both oral (p.o.) and intraperitoneal (i.p.) doses of Compound 1 on systemic EPO in male Balb/c mice was investigated, along with plasma drug concentrations at 1 h and 6 h post dosing. Systemic EPO was measured 6 h post dosing of Compound 1 using a commercially-available MSD assay system, correlated to standard curves. Plasma drug concentrations were quantitated by LC MS/MS. […] FIG. 1 depicts the EPO response to oral (p.o.) and intraperitoneal (i.p.) doses of Compound 1 at 6 h in BalbC mice.

TNBS-induced colitis = assay: Trinitrobenzene sulfonic acid (TNBS)-induced colitis model; format: in vivo, male SJL mice
Protocol: A study was conducted to determine the effects of Compound 1 compared to positive control prednisolone dosed by the oral (p.o.) route in trinitrobenzene sulfonic acid (TNBS)-induced colitis in male SJL mice (FIG. 5). The mice were divided into 5 groups. The mice were fasted for 12 to 16 hours prior to TNBS challenge. On day 0 of the study, mice in groups 2 through 5 were infused intrarectally (IR) with 50 μL TNBS solution (1.5 mg in 50% EtOH/PBS per mouse) to induce colitis. The mice in group 2 were dosed (PO) daily (QD) on days 0 to 3 with vehicle (0.5% HPMC, 0.1% Tween 80 in water). The mice in group 4 were dosed p.o. daily on days 0 to 3 with Compound 1 at 10 mpk, and the mice in group 5 were dosed p.o. daily on days 0 to 3 with Compound 1 at 30 mpk. Prednisone (group 3) was used as a positive control and was dosed p.o., QD on days 0 to 3. Group 1 served as naïve controls. On study day 4, the mice were anesthetized with Isoflurane, bled to exsanguination, and then euthanized for necropsy and tissue collection. Efficacy evaluation was based on animal body weight measurements, colon weights, colon lengths, colon weight per length ratios, histopathology of proximal and distal colons—evaluated as proximal only, distal only, or full colon (proximal and distal). Longitudinal sections of proximal and distal colon were stained with hematoxylin and eosin (H&E). Sections were analyzed using the criteria below and were scored for inflammation, gland loss, and mucosal necrosis. [table] [table] [table] [table] The histopathology sum score was calculated as a sum of inflammation, gland loss, erosion/necrosis (derived from the measure of total length vs. length of mucosal necrosis, i.e., percent), and hyperplasia scores.

[4] = Plasma drug concentrations after oral and intraperitoneal dosing (LC MS/MS); format: in vivo, male Balb/c mice; settings: male, Balb/c, mouse, read-out: blood levels; for concentration at 1 h: 1 h post dosing; for concentration at 6 h: 6 h post dosing
Protocol: as §3

[5] = IV/p.o. pharmacokinetic study in dog; format: in vivo, male beagle dogs; settings: for bioavailability: male, beagle, po, p.o. suspension in 0.5% HPMC
Protocol: as §1, §2

[6] = 10 and 30 mg/kg p.o. QD days 0 to 3

estimated fa*fg (fa: fraction absorbed; fg: fraction that escapes gut metabolism) [1]: ≤ 0.12
terminal t1/2 [1]: short
bioavailability ([1]; male, cynomolgus monkey, plasma, po, p.o. suspension in 0.5% HPMC): ≤ 5%
Papp A→B at 10 μM [2]: < 0.2 ×10⁻⁶ cm/s
estimated fa*fg (fa: fraction absorbed; fg: fraction that escapes gut metabolism) [3]: ≤ 0.12
terminal t1/2 [3]: short
bioavailability ([3]; male, Sprague-Dawley, plasma, po, 5 mg/kg, p.o. dosing): ≤ 5%
concentration at 1 h ([4]; ip, 100 umol/kg i.p.): 42200 nM
concentration at 6 h ([4]; ip, 100 umol/kg i.p.): 5100 nM
concentration at 1 h ([4]; po, 100 umol/kg p.o.): 100 nM
concentration at 6 h ([4]; po, 100 umol/kg p.o.): 20 nM
estimated fa*fg (fa: fraction absorbed; fg: fraction that escapes gut metabolism) [5]: ≤ 0.12
terminal t1/2 [5]: short
bioavailability ([5]; in vivo): ≤ 5%
bioavailability ([5]; plasma): < 5%
Structure (SMILES): O=C(O)c1cnn(-c2nc3cc(S(=O)(=O)c4ccccc4)c(Cl)cc3[nH]2)c1 [Compound 1, 1-(6-chloro-5-(phenylsulfonyl)-1H-benzo[d]imidazol-2-yl)-1H-pyrazole-4-carboxylic acid]
efficacy in mouse model of inflammatory bowel disease (DSS-induced colitis; p.o. dosing): excellent efficacy
systemic pharmacology resulting in increases in EPO/hematocrit (DSS-induced colitis; p.o. dosing, mouse models of inflammatory bowel disease): no systemic pharmacology resulting in increases in EPO/hematocrit was observed
Endoscopic Colitis Scores (DSS-induced colitis; p.o. q.d. Day 6 to 19, 3% DSS Day 0 to 5): effective at ameliorating DSS induced colitis
EPO stimulation (systemic EPO; 100 umol/kg i.p.): 34 fold above vehicle control
EPO stimulation (systemic EPO; 100 umol/kg p.o.): no EPO stimulation
body weight loss (TNBS-induced colitis; [6]): statistically significant inhibition of body weight loss; also recorded: protects against body weight loss
colon histopathology (TNBS-induced colitis; [6]): improvements in colon histopathology
colon weight/length ratio (TNBS-induced colitis; [6]): decreased colon weight/length ratios; also recorded: improves colon weight/length ratio
full-colon and proximal-colon histopathology (TNBS-induced colitis; 10 or 30 mpk p.o. QD days 0 to 3): significant beneficial effects
histopathology inflammation score (TNBS-induced colitis; p.o. QD days 0 to 3): improves the histopathology inflammation score
histopathology summed score (TNBS-induced colitis; p.o. QD days 0 to 3): improves the histopathology summed score
efficacy in mouse model of inflammatory bowel disease (TNBS-induced colitis; p.o. dosing): excellent efficacy

From US20210369678A1, “BENZIMIDAZOLE DERIVATIVE FOR USE IN THE TREATMENT OF INFLAMMATORY DISORDERS” (Akebia Therapeutics, Inc., priority 2018, published 2021)
